Test results as given in ChEMBL document CHEMBL1142905, “1,4-Bis(alkylamino)benzo[g]phthalazines able to form dinuclear complexes of Cu(II) which as free ligands behave as SOD inhibitors and show efficient in vitro activity against Trypanosoma cruzi” (Bioorg Med Chem, 2007).
≈ marks a conversion by molar mass, not a printed value.

Columns and labels:
Trypanosoma cruzi [1] = assay: Reduction of Trypanosoma cruzi Maracay trypomastigote infection in Vero cells; type: functional; parameters: scale not given: the % may be the effect or the level left
Trypanosoma cruzi [2] = assay: Inhibition of Fe-SOD in Trypanosoma cruzi Maracay at 1 ug/mL
Trypanosoma cruzi [3] = assay: Inhibition of Trypanosoma cruzi Maracay epimastigotes after 24 hrs; type: functional, organism-based
Trypanosoma cruzi [4] = assay: Inhibition of Trypanosoma cruzi Maracay epimastigotes after 72 hrs; type: functional, organism-based
Trypanosoma cruzi [5] = assay: Reduction of Trypanosoma cruzi Maracay amastigotes infection in Vero cells at 5 ug/Ml after 8 days relative to control; type: functional; parameters: scale not given: the % may be the effect or the level left
[6] = Toxicity against Vero cells after 72 hrs; type: cell-based; conditions: Chlorocebus sabaeus (African green monkey)
Trypanosoma cruzi [7] = assay: Inhibition of Fe-SOD in Trypanosoma cruzi Maracay at 10 ug/mL
Homo sapiens [8] = species on record: Homo sapiens; assay: Inhibition of Cu-Zn SOD in human erythrocytes at 1 ug/mL; type: cell-based
Trypanosoma cruzi [9] = assay: Inhibition of Fe-SOD in Trypanosoma cruzi Maracay at 25 ug/mL
Trypanosoma cruzi [10] = assay: Inhibition of rate of infection with Trypanosoma cruzi Maracay metacyclic form in Vero cells at 5 ug/mL after 8 days; type: functional; conditions: 192 h
Homo sapiens [11] = species on record: Homo sapiens; assay: Inhibition of Cu-Zn SOD in human erythrocytes at 25 ug/mL; type: cell-based
Trypanosoma cruzi [12] = assay: Inhibition of rate of infection with Trypanosoma cruzi Maracay metacyclic form in Vero cells at 5 ug/mL after 2 days; type: functional; parameters: scale not given: the % may be the effect or the level left
Trypanosoma cruzi [13] = assay: Inhibition of Trypanosoma cruzi Maracay epimastigotes after 48 hrs; type: functional, organism-based
Homo sapiens [14] = species on record: Homo sapiens; assay: Inhibition of Cu-Zn SOD in human erythrocytes at 10 ug/mL; type: cell-based

inhibition (Trypanosoma cruzi [2])	IC50 (Trypanosoma cruzi [3])	IC50 (Trypanosoma cruzi [4])	inhibition (Trypanosoma cruzi [7])	inhibition (Trypanosoma cruzi [9])	IC50 (Trypanosoma cruzi [13])	Structure (SMILES)	Activity (Trypanosoma cruzi [1])	Activity (Trypanosoma cruzi [5])	IC50 at 72 h [6]	inhibition (Homo sapiens [8])	inhibition at 5 µg/mL (Trypanosoma cruzi [10])	inhibition (Homo sapiens [11])	Activity (Trypanosoma cruzi [12])	inhibition (Homo sapiens [14])
64%	56.8 µg/mL (≈ 112 µM)	3.25 µg/mL (≈ 6.39 µM)	68%	75%	12.8 µg/mL (≈ 25.3 µM)	c1ccc(COCCCNc2nnc(NCCCOCc3ccccn3)c3cc4ccccc4cc23)nc1	74%	44%	6.25 µg/mL (≈ 12.3 µM)	0%	68%	11%	35%	7%
48%		12 µg/mL (≈ 31.3 µM)	73%	100%	15.6 µg/mL (≈ 40.6 µM)	NCCOCCNc1nnc(NCCOCCN)c2cc3ccccc3cc12	65%	43%	67.3 µg/mL (≈ 175 µM)	0%	57%	17%		11%
						O=C(Cn1ccnc1[N+](=O)[O-])NCc1ccccc1 [BENZNIDAZOLE]			3.53 µg/mL (≈ 13.6 µM)					
27%	75.4 µg/mL (≈ 195 µM)	30.6 µg/mL (≈ 79.2 µM)	34%	53%	62.6 µg/mL (≈ 162 µM)	OCCOCCNc1nnc(NCCOCCO)c2cc3ccccc3cc12			93.5 µg/mL (≈ 242 µM)	0%		0%		0%
